Test [1] has as its target Death-associated protein kinase 3 (Homo sapiens) (UniProt O43293). Nature of the test: Selectivity interaction (ProQinase) EUB0000171b DAPK3.
Test [2] deals with T1, 3-phosphoinositide-dependent protein kinase 1 (Homo sapiens) (UniProt O15530).
T1 sequence (whole entry): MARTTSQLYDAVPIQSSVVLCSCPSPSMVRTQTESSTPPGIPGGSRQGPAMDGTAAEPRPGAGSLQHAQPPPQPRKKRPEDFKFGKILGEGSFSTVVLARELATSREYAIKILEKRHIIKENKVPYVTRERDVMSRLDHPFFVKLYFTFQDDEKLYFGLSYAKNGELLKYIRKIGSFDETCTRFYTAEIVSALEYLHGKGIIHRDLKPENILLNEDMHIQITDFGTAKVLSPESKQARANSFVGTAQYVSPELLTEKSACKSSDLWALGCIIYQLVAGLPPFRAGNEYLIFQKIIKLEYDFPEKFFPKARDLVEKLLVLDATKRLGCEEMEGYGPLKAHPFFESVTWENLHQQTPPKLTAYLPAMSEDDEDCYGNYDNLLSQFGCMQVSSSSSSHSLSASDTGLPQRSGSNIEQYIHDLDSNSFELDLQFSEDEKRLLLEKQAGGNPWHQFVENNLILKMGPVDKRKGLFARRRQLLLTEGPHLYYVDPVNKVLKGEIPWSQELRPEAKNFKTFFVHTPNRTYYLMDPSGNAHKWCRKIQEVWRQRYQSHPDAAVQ
Nature of the test: Selectivity interaction (KinomeScan (DiscoverX)) EUB0001079a PDPK1. As to conditions: at 1 µM.

In test [3] the target is Calcium/calmodulin-dependent protein kinase type II subunit alpha (Homo sapiens, UniProt Q9UQM7). Nature of the test: Selectivity interaction (KinomeScan (DiscoverX)) EUB0001049a CAMK2A. Particulars: at 1 µM.
The target in test [4] is T2, Non-receptor tyrosine-protein kinase TNK1 (Homo sapiens) (UniProt Q13470).
T2 sequence (whole entry): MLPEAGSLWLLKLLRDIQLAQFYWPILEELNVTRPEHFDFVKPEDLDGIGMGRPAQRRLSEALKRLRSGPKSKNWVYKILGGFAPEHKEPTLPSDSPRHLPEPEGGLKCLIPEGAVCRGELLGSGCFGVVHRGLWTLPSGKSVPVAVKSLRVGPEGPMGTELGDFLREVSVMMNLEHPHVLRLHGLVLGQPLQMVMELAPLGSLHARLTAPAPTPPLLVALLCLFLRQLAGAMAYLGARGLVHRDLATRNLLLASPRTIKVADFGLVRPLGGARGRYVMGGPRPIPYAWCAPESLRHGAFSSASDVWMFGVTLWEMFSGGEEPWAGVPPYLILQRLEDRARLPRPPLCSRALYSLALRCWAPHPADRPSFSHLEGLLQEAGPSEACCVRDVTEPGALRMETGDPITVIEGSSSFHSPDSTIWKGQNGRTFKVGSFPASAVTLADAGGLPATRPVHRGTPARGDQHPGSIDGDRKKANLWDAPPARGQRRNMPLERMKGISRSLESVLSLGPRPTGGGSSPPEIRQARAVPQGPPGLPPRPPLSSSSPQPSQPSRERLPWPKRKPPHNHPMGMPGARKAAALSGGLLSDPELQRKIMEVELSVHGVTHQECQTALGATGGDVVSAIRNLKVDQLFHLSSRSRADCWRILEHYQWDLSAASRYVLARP
Description: Selectivity interaction (KinomeScan (DiscoverX)) EUB0000045b TNK1.

For test [5], the target named is Mitogen-activated protein kinase 6 (Homo sapiens) (UniProt Q16659). Description: Selectivity interaction (KinomeScan (DiscoverX)) EUB0000045b MAPK6.
Test [6] has as its target Ribosomal protein S6 kinase alpha-6 (Homo sapiens, UniProt Q9UK32). Description: Selectivity interaction (SelectScreen profiling (Invitrogen)) EUB0000607a RPS6KA6. Particulars: at 2 µM.
Test [7] concerns the target Fibroblast growth factor receptor 1 (Homo sapiens, UniProt P11362). Description: Selectivity interaction (KinomeScan (DiscoverX)) EUB0000607a FGFR1. Particulars: at 10 µM.
Test [8] addresses Tyrosine-protein kinase CSK (Homo sapiens) (UniProt P41240). Description: Selectivity interaction (ActivX KiNativ screen (kinase selectivity in THP-1 cell lysates)) EUB0000639a CSK. Format: subcellular. Particulars: lysate, at 0.2 µM.
Test [9] has as its target T3, Serine/threonine-protein kinase ULK1 (Homo sapiens) (UniProt O75385).
T3 sequence (whole entry): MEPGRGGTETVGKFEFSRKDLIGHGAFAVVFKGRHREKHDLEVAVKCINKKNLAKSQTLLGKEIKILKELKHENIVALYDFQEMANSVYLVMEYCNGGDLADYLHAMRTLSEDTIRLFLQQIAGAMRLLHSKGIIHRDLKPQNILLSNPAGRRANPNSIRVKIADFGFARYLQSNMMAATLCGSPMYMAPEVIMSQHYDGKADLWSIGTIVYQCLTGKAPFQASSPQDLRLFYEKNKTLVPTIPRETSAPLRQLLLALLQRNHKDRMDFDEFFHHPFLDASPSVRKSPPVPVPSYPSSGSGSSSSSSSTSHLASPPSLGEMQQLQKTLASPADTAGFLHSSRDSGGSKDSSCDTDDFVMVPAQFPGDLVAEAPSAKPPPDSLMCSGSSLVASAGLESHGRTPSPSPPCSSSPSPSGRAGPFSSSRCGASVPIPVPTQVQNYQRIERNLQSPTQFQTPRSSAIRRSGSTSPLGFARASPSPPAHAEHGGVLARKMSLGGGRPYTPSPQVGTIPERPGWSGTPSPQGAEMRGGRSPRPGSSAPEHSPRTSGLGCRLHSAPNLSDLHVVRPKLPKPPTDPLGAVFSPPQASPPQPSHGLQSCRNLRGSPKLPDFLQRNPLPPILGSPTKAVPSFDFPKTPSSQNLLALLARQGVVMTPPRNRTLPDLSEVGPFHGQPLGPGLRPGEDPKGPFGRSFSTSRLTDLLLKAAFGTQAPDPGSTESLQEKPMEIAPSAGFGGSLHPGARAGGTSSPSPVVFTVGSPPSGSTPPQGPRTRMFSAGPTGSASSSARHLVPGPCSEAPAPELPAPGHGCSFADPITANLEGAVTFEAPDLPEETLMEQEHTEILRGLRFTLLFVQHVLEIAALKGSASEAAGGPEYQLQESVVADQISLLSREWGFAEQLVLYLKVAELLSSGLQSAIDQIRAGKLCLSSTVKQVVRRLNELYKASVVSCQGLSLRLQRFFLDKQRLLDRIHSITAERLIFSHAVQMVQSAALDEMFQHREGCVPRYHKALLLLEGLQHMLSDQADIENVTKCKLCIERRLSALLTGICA
Nature of the test: Selectivity interaction (Kinase panel (DSF assay)) EUB0001559a ULK1.

Test [10] addresses Myosin light chain kinase, smooth muscle (Homo sapiens, UniProt Q15746). Description: Selectivity interaction (KinomeScan (DiscoverX)) EUB0000595a MYLK. Particulars: at 10 µM.
Test [11] concerns the target Mitogen-activated protein kinase 3 (Homo sapiens, UniProt P27361). Nature of the test: Selectivity interaction (KinomeScan (DiscoverX)) EUB0000618a MAPK3. Particulars: at 10 µM.

Chain of Death-associated protein kinase 3 (Homo sapiens) (O43293 whole entry, looked up): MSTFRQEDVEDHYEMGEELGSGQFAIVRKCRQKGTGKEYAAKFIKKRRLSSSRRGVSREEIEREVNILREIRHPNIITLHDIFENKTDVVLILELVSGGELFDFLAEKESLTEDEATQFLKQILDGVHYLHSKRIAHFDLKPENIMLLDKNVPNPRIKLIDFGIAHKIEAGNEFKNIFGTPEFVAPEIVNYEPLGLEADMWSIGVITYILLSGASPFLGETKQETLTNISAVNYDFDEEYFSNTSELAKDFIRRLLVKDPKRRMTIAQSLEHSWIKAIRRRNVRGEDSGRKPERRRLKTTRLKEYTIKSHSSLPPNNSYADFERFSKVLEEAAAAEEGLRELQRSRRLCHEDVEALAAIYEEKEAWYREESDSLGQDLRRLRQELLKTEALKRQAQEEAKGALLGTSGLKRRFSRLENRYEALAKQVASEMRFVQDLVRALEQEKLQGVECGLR
Chain of Mitogen-activated protein kinase 6 (Homo sapiens) (Q16659 whole entry): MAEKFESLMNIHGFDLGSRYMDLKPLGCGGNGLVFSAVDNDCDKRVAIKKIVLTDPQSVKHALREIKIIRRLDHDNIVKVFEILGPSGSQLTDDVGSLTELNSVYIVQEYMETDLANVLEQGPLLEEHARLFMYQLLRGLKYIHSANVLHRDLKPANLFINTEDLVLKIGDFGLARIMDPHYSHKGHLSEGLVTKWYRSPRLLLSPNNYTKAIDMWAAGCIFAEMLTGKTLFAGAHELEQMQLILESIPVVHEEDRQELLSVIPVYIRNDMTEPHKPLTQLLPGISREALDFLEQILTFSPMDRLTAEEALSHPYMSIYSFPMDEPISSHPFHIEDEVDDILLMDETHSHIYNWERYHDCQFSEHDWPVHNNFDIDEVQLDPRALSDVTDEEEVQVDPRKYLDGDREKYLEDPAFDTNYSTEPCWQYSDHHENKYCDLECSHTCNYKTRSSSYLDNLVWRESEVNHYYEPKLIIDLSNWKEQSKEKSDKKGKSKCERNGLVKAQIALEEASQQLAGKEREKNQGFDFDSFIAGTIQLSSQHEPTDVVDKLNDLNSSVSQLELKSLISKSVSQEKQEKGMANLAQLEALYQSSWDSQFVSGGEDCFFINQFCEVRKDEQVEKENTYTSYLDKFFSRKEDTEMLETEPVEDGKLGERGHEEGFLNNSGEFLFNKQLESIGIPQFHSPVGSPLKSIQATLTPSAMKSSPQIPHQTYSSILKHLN
Chain of Myosin light chain kinase, smooth muscle (Q15746 whole entry): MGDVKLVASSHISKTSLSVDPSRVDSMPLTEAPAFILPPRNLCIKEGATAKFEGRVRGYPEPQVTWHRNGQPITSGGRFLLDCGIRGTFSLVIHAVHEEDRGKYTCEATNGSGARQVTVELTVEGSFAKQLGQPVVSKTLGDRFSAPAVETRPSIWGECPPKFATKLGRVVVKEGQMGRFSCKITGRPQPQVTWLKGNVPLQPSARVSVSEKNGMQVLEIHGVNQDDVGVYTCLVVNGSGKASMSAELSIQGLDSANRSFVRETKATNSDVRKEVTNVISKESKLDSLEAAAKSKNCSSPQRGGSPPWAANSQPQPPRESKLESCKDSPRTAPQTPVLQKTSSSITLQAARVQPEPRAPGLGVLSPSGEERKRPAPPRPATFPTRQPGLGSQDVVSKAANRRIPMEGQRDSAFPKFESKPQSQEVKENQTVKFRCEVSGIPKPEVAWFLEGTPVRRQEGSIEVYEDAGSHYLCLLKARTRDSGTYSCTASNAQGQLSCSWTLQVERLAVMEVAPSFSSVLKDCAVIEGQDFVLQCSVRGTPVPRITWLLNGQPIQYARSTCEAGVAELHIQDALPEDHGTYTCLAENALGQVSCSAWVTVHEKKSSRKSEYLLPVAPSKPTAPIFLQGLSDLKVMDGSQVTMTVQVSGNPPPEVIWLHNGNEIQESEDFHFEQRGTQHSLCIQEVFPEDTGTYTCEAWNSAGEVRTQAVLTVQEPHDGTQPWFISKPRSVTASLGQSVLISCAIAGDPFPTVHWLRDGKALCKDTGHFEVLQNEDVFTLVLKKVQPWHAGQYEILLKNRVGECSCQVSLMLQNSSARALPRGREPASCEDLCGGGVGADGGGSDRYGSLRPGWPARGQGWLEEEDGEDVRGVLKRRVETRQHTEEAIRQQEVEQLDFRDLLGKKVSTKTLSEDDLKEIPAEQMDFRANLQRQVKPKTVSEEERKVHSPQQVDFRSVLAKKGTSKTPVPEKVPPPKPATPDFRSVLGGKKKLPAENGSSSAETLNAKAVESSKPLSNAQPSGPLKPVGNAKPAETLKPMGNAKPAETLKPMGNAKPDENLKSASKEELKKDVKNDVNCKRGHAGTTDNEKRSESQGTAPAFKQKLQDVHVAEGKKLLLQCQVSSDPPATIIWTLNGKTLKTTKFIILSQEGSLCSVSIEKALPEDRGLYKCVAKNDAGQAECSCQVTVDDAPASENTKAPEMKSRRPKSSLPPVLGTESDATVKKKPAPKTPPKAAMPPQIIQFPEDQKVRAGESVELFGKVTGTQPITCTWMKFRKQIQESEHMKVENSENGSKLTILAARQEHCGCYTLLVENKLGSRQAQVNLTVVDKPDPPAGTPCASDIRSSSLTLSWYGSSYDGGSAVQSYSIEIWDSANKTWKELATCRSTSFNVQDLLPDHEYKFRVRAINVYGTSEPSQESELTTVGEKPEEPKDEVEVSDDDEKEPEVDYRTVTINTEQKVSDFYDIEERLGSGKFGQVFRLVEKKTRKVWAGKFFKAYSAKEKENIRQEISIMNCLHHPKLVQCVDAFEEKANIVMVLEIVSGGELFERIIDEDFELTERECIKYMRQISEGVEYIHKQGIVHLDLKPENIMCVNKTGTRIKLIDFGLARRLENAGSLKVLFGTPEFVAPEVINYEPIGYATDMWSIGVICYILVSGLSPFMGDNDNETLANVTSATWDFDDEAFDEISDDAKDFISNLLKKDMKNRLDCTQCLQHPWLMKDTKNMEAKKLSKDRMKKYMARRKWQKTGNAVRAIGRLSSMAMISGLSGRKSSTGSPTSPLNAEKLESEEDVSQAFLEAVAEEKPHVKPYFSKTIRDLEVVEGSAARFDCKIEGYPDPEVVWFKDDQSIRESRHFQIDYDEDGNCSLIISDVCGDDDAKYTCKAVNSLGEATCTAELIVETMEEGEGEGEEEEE
Chain of Tyrosine-protein kinase CSK (Homo sapiens) (P41240 2-450 limits assumed): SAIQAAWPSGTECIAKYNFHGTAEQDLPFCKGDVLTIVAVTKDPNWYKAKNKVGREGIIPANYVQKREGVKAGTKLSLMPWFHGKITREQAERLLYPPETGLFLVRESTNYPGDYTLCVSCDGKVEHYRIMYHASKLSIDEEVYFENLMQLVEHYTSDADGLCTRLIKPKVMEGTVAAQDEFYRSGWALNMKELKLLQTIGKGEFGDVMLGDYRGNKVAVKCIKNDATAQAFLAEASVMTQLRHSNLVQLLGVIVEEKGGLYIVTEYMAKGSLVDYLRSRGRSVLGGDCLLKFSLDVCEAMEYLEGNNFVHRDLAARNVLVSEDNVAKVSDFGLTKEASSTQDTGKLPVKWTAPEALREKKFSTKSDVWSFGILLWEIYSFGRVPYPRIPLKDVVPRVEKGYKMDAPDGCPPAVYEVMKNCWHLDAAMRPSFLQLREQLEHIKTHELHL
Chain of Calcium/calmodulin-dependent protein kinase type II subunit alpha (Q9UQM7 whole entry): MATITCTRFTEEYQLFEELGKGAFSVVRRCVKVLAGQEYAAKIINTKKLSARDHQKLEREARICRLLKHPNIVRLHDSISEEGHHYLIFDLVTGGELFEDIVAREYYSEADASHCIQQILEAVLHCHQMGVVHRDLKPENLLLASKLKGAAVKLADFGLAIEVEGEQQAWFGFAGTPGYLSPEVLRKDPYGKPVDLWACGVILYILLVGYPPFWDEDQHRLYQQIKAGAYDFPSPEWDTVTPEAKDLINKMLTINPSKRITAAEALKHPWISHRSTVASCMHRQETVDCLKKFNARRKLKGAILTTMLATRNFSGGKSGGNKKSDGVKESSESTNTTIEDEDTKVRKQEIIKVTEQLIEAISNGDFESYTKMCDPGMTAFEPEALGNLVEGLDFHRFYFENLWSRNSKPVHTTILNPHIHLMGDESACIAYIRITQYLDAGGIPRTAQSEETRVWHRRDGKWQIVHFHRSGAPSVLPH
Chain of Mitogen-activated protein kinase 3 (P27361 whole entry): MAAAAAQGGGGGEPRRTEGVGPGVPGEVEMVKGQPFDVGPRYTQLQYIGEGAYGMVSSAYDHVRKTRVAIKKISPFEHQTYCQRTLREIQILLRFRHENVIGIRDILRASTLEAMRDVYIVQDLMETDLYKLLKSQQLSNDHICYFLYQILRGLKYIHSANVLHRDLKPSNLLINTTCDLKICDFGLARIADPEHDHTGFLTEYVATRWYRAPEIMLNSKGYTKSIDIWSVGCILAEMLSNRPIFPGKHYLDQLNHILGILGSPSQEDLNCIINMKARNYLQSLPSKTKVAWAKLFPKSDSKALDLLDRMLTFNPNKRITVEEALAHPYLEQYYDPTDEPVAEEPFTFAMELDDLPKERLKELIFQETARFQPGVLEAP

On to `C=CC(=O)Nc1cccc(C(=O)Nc2ccc(Nc3cc(-c4[nH]c(SC)nc4C)ccn3)cc2)c1`, for which the % of control in test [1] (at 1 µM) and in test [1] (at 5 µM) was 88% each time. As to `Nc1cnc(N2CCc3cc(S(=O)(=O)Nc4c(F)cc(Cl)cc4F)cc(N4CCCC4=O)c32)nc1` [TP-020n], the % of control in test [2] was 98%. As for `COc1cc(Nc2nc(C)cc(-c3cnn4nc(OC)ccc34)n2)cc(C(F)(F)F)c1`, the % of control in test [3] was found to be 85%. In the case of `C=CC(=O)Nc1cc(-n2c(=O)ccc3cnc4ccc(-c5ccc(NS(C)(=O)=O)cc5)cc4c32)ccc1C`, the % of control amounted to 100% in test [4] (at 1 µM), 100% in test [4] (at 10 µM), 82% in [5] (at 1 µM) and 100% in [5] (at 10 µM). In the case of `CNC(=O)Nc1ccc(-c2nc(N3CC4CCC(C3)O4)c3cnn(C4CCC5(CC4)OCCO5)c3n2)cc1`, the % of inhibition in test [6] was found to be 12%. The same compound registered a % of control in [7] of 100%. For the compound `CC[C@@H]1[C@H](F)C(=O)N[C@@H]1COc1nccc2cc(C(N)=O)c(OC)cc12` [ZIMLOVISERTIB], the % of inhibition in test [8] was -6.8%. For the compound `CN(C(=O)c1cnn2cccnc12)c1cc2c(cc1N1CCOCC1)C(=O)N(C[C@@H](F)C(C)(C)O)C2`, the dTM in [9] was -1 K. `COCC(=O)NC/C=C/c1ccc2ncnc(Nc3ccc(Oc4ccc(C)nc4)c(C)c3)c2c1` [CP-724714] gave a % of control in [10] of 100%. In test [11], `O[C@H]1CC[C@H](Nc2ncc3nc(Nc4c(F)cc(F)cc4F)n([C@H]4CCOC4)c3n2)CC1` returned a % of control of 32%.

The values above are taken from ChEMBL document CHEMBL5465560, “Selectivity Literature for EUbOPEN Chemogenomic Library” (2024).
